Laboratory results: patent US10851069B2, “Compositions of crystallized hydrophobic compounds and methods of making and using same” (Massachusetts Institute of Technology, priority 2016, dated 2020)

Experiments:
[1] = In vitro drug release from alginate capsules loaded with crystalline or amorphous formulations; assay type: physicochemical; conditions: accelerated release conditions (+ SDS)
Method: Release study was carried out in 3 different media, a normal saline-Isopropyl alcohol (10%) mixture, a phosphate buffer (pH 7.4), or for accelerated condition with phosphate buffered saline (pH 7.4) either with 0.1% w/v or 03% w/v SDS. Release study at NS+10% IPA was carried out in 2 ml medium at 37° C. Sampling was carried out by replacement of 1.5 ml of release medium by total replacement of release medium with fresh medium. […] For release in accelerated condition (PBS+SDS), the same time points were followed while 20 μl of drug loaded capsules were incubated in 2 ml release medium to achieve sink conditions. Drug concentration in samples was measured by reverse phase HPLC on C-18 column with a mobile phase or using UV calibrated system. An isocratic mode was set at a flow rate of 0.5-2 ml/min and a different wave-length of nm and 20-50 μl of samples was injected into an HPLC system (Waters, LC-Module-I) or UV analyzed. Calibration curves were prepared in concentration range of 0.05-10 μg/ml. Using prepared calibration curves, drugs concentration in different release samples were calculated.

[2] = system: rat Pdx1; assay: qPCR of explanted capsules, rat islet function/viability marker; assay type: in vivo; conditions: explanted at approximately 430 (amorphous) or 460 (crystalline) days post-transplant
Description: Total RNA was isolated from fibrosed spheres (with adhered tissue and immune overgrowth, if present), liquid nitrogen snap-frozen immediately following excision, using TRIzol (Invitrogen, Carlsbad, Calif.) according to the manufacturer's instructions. In addition, to help ensure complete tissue disruption, we also employed strong mechanical disruption with a Polytron homogenizer. Thus, gene expression signatures shown throughout are proportional and representative of the entire cell population present on and/or around retrieved materials. […] Mouse (5′-[…]-3′ (SEQ. ID. No.:1); reverse: 5′-CGGGTTCCGCTGTGTAAG-3′ (SEQ. ID. No.:2)) and rat (5′-CTCTCGTGCCATGTGAACC-3′ (SEQ. ID. No.:3); reverse: 5′-[…]-3′ (SEQ. ID. No.:4)) Pdx1 primers were designed using Primer Express software (Applied Biosystems, Carlsbad, Calif., USA) and evaluated using LaserGene software (DNAStar, Madison, Wis., USA) to ensure species rat (encapsulated islet) or mouse (host)-specificity, and normalized to mouse (5′-[…]-3′ (SEQ. ID. No.:5); reverse: 5′-[…]-3′ (SEQ. ID. No.:6)) and rat (5′-[…]-3′ (SEQ. ID. No.:7); reverse: 5′-[…]-3′ (SEQ. ID. No.:8)) Beta-actin, respectively. […] Results were analyzed using the comparative CT (ΔΔCT) method as described by the manufacturer. […]

[3] = system: STZ-induced diabetic C57BL/6 mice; assay: Blood glucose monitoring after transplantation of encapsulated rat islets with or without drug; assay type: in vivo
Method: Immediately prior to encapsulation, the cultured islets were centrifuged at 1,400 rpm for 1 minute and washed with Ca-free Krebs-Henseleit (KH) Buffer (4.7 mM KCl, 25 mM HEPES, 1.2 mM KH2PO4, 1.2 mM MgSO4×7H2O, 135 mM NaCl, pH≈7.4, ≈290 mOsm). After washing, islets were centrifuged again and all supernatant was aspirated. The islet pellet was then re-suspended in a 2.0% solution of SLG20 alginate dissolved in 0.9% NaCl solution at an islet density of 1,000 islets per 1.0 ml alginate solution. Spheres were crosslinked using a BaCl2 gelling solution and their sizes were controlled using similar procedures as the empty spheres (described above). Immediately after crosslinking, the encapsulated islets were washed 4 times with HEPES buffer and 2 times with RPMI Medium 1640 with 10% HIFBS and cultured overnight at 37° C. for transplantation. As the islets had variable sizes (50-400 μm) and there was an inevitable loss of islets during the encapsulation process, the total number of encapsulated islets were recounted and converted into islet equivalents (IE, normalized to 150 μm size) based on a previously published method (Ricordi, C. et al. Islet isolation assessment in man and large animals. Acta 18 Diabetol. Lat. 27, 185195 (1990)) prior to transplantation.
All animal protocols were approved by the MIT Committee on Animal Care, and all surgical procedures and post-operative care was supervised by MIT Division of Comparative Medicine veterinary staff. Immune-competent male non-diabetic or STZ-induced diabetic C57BL/6 mice (Jackson Laboratory, Bar Harbor, Me.) were anesthetized with 3% isoflurane in oxygen and had their abdomens shaved and sterilized using betadine and isopropanol. Preoperatively, all mice also received a 0.05 mg/kg dose of buprenorphine subcutaneously as a pre-surgical analgesic, along with 0.3 mL of 0.9% saline subcutaneously to prevent dehydration. […]
Blood glucose levels were monitored three times a week following transplantation of islet-containing alginate capsules. […]

In the case of `COc1ccc(COc2ccc(Cc3cnc(N)nc3N)cc2OC)cc1` [GW2580, 5-[[3-Methoxy-4-[(4-methoxyphenyl)methoxy]phenyl]methyl]-2,4-pyrimidinediamine], the drug release profile ([1]; amorphous form in 2000 μm alginate capsules) is reported as “Higher drug release”, the drug release profile ([1]; pure crystalline formulations in 2000 μm alginate capsules) is reported as “released the drug more slowly initially, but continued releasing drugs for a much longer period of time” and the “Pdx1 expression, crystal versus amorphous capsules” value [2] is reported as “approximately 30 fold”. The “improvement of normoglycemia duration over controls” value ([3]; amorphous) was 2 fold, the “improvement of normoglycemia duration over controls” value ([3]; crystalline) was “approximately 13 fold” and the “duration of maintained normoglycemia” value ([3]; crystalline, 0.5 mm alginate microspheres) was “over 1.25 years”.
